{"source": "patent US11453666B2", "about": "“Autotaxin inhibitory compounds” (Cancer Research Technology Limited, priority 2015, dated 2022)", "target": "human recombinant ATX (Homo sapiens, UniProt Q13822)", "test": "Autotaxin (ATX) activity Quanta Red assay", "format": "biochemical", "experimental": "The reaction was stopped after 2 hours with a 20 μL addition of Quanta Red Stop solution (1:20 dilution in distilled water). The above-described mixture with DMSO alone was used as a positive control whereas that with DMSO alone without ATX was taken as a negative control.\nFluorescence was determined in a BMG Labtech Pherastar plus plate reader ([…]). Data were analysed using Excel fit software. IC50 values were determined in duplicate.", "key": {"[1]": {"conditions": "read-out: Activity (ATX activity, Quanta Red assay; IC50)"}, "[2]": {"conditions": "human recombinant ATX 0.8 μg/mL, 2 hours at room temperature, IC50 determined in duplicate, read-out: Activity (ATX activity, Quanta Red assay; IC50)"}, "[3]": {"conditions": "Table 2: additional compounds tested for ATX activity (Quanta Red Assay), read-out: Activity"}}, "note": "Where two headings read alike, the source gives them in different places."}
{"molecule": "COc1ccc(CNC(=O)CCc2nc3cc(F)cnc3n2Cc2ccccc2OC)cc1", "note": "[Example 101, 3-[6-Fluoro-3-(2-methoxy-benzyl)-3H-imidazo[4,5-b]pyridin-2-yl]-N-(4-methoxy-benzyl)-propionamide]", "values": [{"measurement": "IC50", "setting": "[1]", "result": 55, "unit": "nM"}]}
{"molecule": "COc1ccc(Cn2c(CCC(=O)NCc3ccccc3)nc3cccnc32)cc1", "note": "[Example 236, N-Benzyl-3-[3-(4-methoxy-benzyl)-3H-imidazo[4,5-b]pyridin-2-yl]-propionamide, reference compound]", "values": [{"measurement": "IC50", "setting": "Table 3: commercially available compounds tested for Autotaxin activity (Quanta Red assay), read-out: Activity", "result": 406, "unit": "nM"}]}
{"molecule": "C[C@H](NC(=O)CCc1nc2cccnc2n1Cc1ccccc1)c1ccccc1", "note": "[Example 1, 3-(3-benzyl-3H-imidazo[4,5-b]pyridin-2-yl)-N—((S)-1-phenyl-ethyl)-propionamide]", "values": [{"measurement": "IC50", "setting": "[2]", "result": 68, "unit": "nM"}]}
{"molecule": "C[C@H](NC(=O)CCc1nc2cccnc2n1Cc1ccc(OC(F)(F)F)cc1)c1ccc(N[C@H]2CCNC2)cc1", "note": "[Example 175, N-{(S)-1-[4-((S)-Pyrrolidin-3-ylamino)-phenyl]-ethyl}-3-[3-(4-trifluoromethoxy-benzyl)-3H-imidazo[4,5-b]pyridin-2-yl]-propionamide]", "values": [{"measurement": "IC50", "setting": "[1]", "result": 3, "unit": "nM"}]}
{"molecule": "COc1ccc([C@H](C)NC(=O)NCc2nc3cccnc3n2Cc2ccc(F)cc2)cc1", "note": "[Example 159, 1-[3-(4-Fluoro-benzyl)-3H-imidazo[4,5-b]pyridin-2-ylmethyl]-3-[(S)-1-(4-methoxy-phenyl)-ethyl]-urea]", "values": [{"measurement": "IC50", "setting": "[1]", "result": 42, "unit": "nM"}]}
{"molecule": "COc1ccc(Cn2c(CCC(=O)NCc3ccc(F)c(F)c3)nc3cccnc32)cc1", "note": "[Example 107, N-(3,4-Difluoro-benzyl)-3-[3-(4-methoxy-benzyl)-3H-imidazo[4,5-b]pyridin-2-yl]-propionamide]", "values": [{"measurement": "IC50", "setting": "[1]", "result": 102, "unit": "nM"}]}
{"molecule": "Cc1cnc2c(c1)nc(CCC(=O)N[C@@H](C)c1ccc(N3CCCNCC3)cc1)n2Cc1ccc(OC(F)(F)F)cc1", "note": "[Example 191, N-[(S)-1-(4-[1,4]Diazepan-1-yl-phenyl)-ethyl]-3-[6-methyl-3-(4-trifluoromethoxy-benzyl)-3H-imidazo[4,5-b]pyridin-2-yl]-propionamide]", "values": [{"measurement": "IC50", "setting": "[1]", "result": 25, "unit": "nM"}]}
{"molecule": "O=C(CCc1nc2cccnc2n1Cc1ccc(OC(F)(F)F)cc1)Nc1ncco1", "note": "[Example 78, N-Oxazol-2-yl-3-[3-(4-trifluoromethoxy-benzyl)-3H-imidazo[4,5-b]pyridin-2-yl]-propionamide]", "values": [{"measurement": "IC50", "setting": "[1]", "result": 800, "unit": "nM"}]}
{"molecule": "C[C@H](NC(=O)CCc1nc2cccnc2n1Cc1ccc(F)cc1)c1ccc(N2CCC(CO)CC2)cc1", "note": "[Example 181, 3-[3-(4-Fluoro-benzyl)-3H-imidazo[4,5-b]pyridin-2-yl]-N-{(S)-1-[4-(4-hydroxymethyl-piperidin-1-yl)-phenyl]-ethyl}-propionamide]", "values": [{"measurement": "IC50", "setting": "[1]", "result": 7, "unit": "nM"}]}
{"molecule": "C[C@H](NC(=O)CCc1nc2cccnc2n1Cc1ccc(OC(F)(F)F)cc1)[C@H](O)c1ccccc1", "note": "[Example 41, N-((1S,2R)-2-Hydroxy-1-methyl-2-phenyl-ethyl)-3-[3-(4-trifluoromethoxy-benzyl)-3H-imidazo[4,5-b]pyridin-2-yl]-propionamide]", "values": [{"measurement": "IC50", "setting": "[1]", "result": 10, "unit": "nM"}]}
{"molecule": "O=C(CCc1nc2cccnc2n1Cc1ccccc1)NCc1ccc(Cl)cc1", "note": "[Example 217, 3-(3-Benzyl-3H-imidazo[4,5-b]pyridin-2-yl)-N-(4-chloro-benzyl)-propionamide]", "values": [{"measurement": "IC50", "setting": "[3]", "result": 29, "unit": "nM"}]}
{"molecule": "COc1ccc(CNC(=O)CCc2nc3cccnc3n2Cc2ccc(OC)cc2)cc1", "note": "[Example 222, N-(4-Methoxy-benzyl)-3-[3-(4-methoxy-benzyl)-3H-imidazo[4,5-b]pyridin-2-yl]-propionamide]", "values": [{"measurement": "IC50", "setting": "[3]", "result": 193, "unit": "nM"}]}
{"molecule": "C[C@H](NC(=O)CCc1nc2cccnc2n1Cc1ccc(OC(F)(F)F)cc1)c1ccc(N2CC[C@H](N(C)C)C2)cc1", "note": "[Example 169, N-{(S)-1-[4-((S)-3-Dimethylamino-pyrrolidin-1-yl)-phenyl]-ethyl}-3-[3-(4-trifluoromethoxy-benzyl)-3H-imidazo[4,5-b]pyridin-2-yl]-propionamide]", "values": [{"measurement": "IC50", "setting": "[1]", "result": 1, "unit": "nM"}]}
{"molecule": "Cc1cnc2c(c1)nc(CCC(=O)N[C@@H](C)c1ccc(Cl)cc1)n2Cc1ccc(F)cc1", "note": "[Example 213, N-[(S)-1-(4-Chloro-phenyl)-ethyl]-3-[3-(4-fluoro-benzyl)-6-methyl-3H-imidazo[4,5-b]pyridin-2-yl]-propionamide]", "values": [{"measurement": "IC50", "setting": "[1]", "result": 17, "unit": "nM"}]}
{"molecule": "COc1ccc(CNC(=O)CCc2nc3cccnc3n2Cc2cccc(C)c2)cc1", "note": "[Example 118, N-(4-Methoxy-benzyl)-3-[3-(3-methyl-benzyl)-3H-imidazo[4,5-b]pyridin-2-yl]-propionamide]", "values": [{"measurement": "IC50", "setting": "[1]", "result": 726, "unit": "nM"}]}
{"molecule": "C[C@H](NC(=O)CCc1nc2cccnc2n1Cc1ccc(F)c(F)c1)c1ccc(N2CCCC2)cc1", "note": "[Example 183, 3-[3-(3,4-Difluoro-benzyl)-3H-imidazo[4,5-b]pyridin-2-yl]-N-[(S)-1-(4-pyrrolidin-1-yl-phenyl)-ethyl]-propionamide]", "values": [{"measurement": "IC50", "setting": "[1]", "result": 10, "unit": "nM"}]}
{"molecule": "C[C@@H](NC(=O)CCc1nc2cccnc2n1Cc1ccc(OC(F)(F)F)cc1)c1ccc(Cl)cc1", "note": "[Example 49, N-[(R)-1-(4-Chloro-phenyl)-ethyl]-3-[3-(4-trifluoromethoxy-benzyl)-3H-imidazo[4,5-b]pyridin-2-yl]-propionamide]", "values": [{"measurement": "IC50", "setting": "[1]", "result": 21, "unit": "nM"}]}
{"molecule": "C[C@H](NC(=O)CCc1nc2ccncc2n1Cc1ccc(OC(F)(F)F)cc1)c1ccc(N2CCN(C)CC2)cc1", "note": "[Example 125, N-{(S)-1-[4-(4-Methyl-piperazin-1-yl)-phenyl]-ethyl}-3-[3-(4-trifluoromethoxy-benzyl)-3H-imidazo[4,5-c]pyridin-2-yl]-propionamide]", "values": [{"measurement": "IC50", "setting": "[1]", "result": 9, "unit": "nM"}]}
{"molecule": "C[C@H](NC(=O)CCc1nc2cc(Br)cnc2n1Cc1ccc(OC(F)(F)F)cc1)c1ccc(Cl)cc1", "note": "[Example 61]", "values": [{"measurement": "IC50", "setting": "[1]", "result": 100, "unit": "nM"}]}
{"molecule": "O=C(CCc1nc2cccnc2n1Cc1ccc(OC(F)(F)F)cc1)NCc1ccc(OC(F)(F)F)cc1", "note": "[Example 22, N-(4-Trifluoromethoxy-benzyl)-3-[3-(4-trifluoromethoxy-benzyl)-3H-imidazo[4,5-b]pyridin-2-yl]-propionamide]", "values": [{"measurement": "IC50", "setting": "[1]", "result": 4, "unit": "nM"}]}
{"molecule": "O=C(CCc1nc2cccnc2n1Cc1ccc(F)c(F)c1)NCc1ccncc1", "note": "[Example 82, 3-[3-(3,4-Difluoro-benzyl)-3H-imidazo[4,5-b]pyridin-2-yl]-N-pyridin-4-ylmethyl-propionamide]", "values": [{"measurement": "IC50", "setting": "[1]", "result": 987, "unit": "nM"}]}
{"molecule": "CN(C)CCCOc1ccc(CNC(=O)CCc2nc3ccncc3n2Cc2ccc(OC(F)(F)F)cc2)cc1", "note": "[Example 128, N-[4-(3-Dimethylamino-propoxy)-benzyl]-3-[3-(4-trifluoromethoxy-benzyl)-3H-imidazo[4,5-c]pyridin-2-yl]-propionamide]", "values": [{"measurement": "IC50", "setting": "[1]", "result": 17, "unit": "nM"}]}
{"molecule": "C[C@H](NC(=O)CCc1nc2cccnc2n1Cc1ccc(F)cc1)c1ccccn1", "note": "[Example 68, 3-[3-(4-Fluoro-benzyl)-3H-imidazo[4,5-b]pyridin-2-yl]-N-((S)-1-pyridin-2-yl-ethyl)-propionamide]", "values": [{"measurement": "IC50", "setting": "[1]", "result": 212, "unit": "nM"}]}
{"molecule": "CN(C)c1ccc(CNC(=O)CCc2nc3cccnc3n2Cc2ccc(F)cc2)cc1", "note": "[Example 58, N-(4-Dimethylamino-benzyl)-3-[3-(4-fluoro-benzyl)-3H-imidazo[4,5-b]pyridin-2-yl]-propionamide]", "values": [{"measurement": "IC50", "setting": "[1]", "result": 61, "unit": "nM"}]}
{"molecule": "COc1ccc(CNC(=O)CCc2nc3cccc(F)c3n2Cc2ccc(OC)cc2)cc1", "note": "[Example 91, 3-[7-Fluoro-1-(4-methoxy-benzyl)-1H-benzoimidazol-2-yl]-N-(4-methoxy-benzyl)-propionamide]", "values": [{"measurement": "IC50", "setting": "[1]", "result": 14, "unit": "nM"}]}
{"molecule": "CC(C)COc1ccc(Cn2c(CCC(=O)N[C@@H](C)c3ccc(F)cc3)nc3cccnc32)cc1", "note": "[Example 156, N—[(S)-1-(4-fluoro-phenyl)-ethyl]-3-[3-(4-isobutoxy-benzyl)-3H-imidazo[4,5-b]pyridin-2-yl]-propionamide]", "values": [{"measurement": "IC50", "setting": "[1]", "result": 704, "unit": "nM"}]}
{"molecule": "C[C@H](NC(=O)CS(=O)(=O)c1nc2cccnc2n1Cc1ccc(OC(F)(F)F)cc1)c1ccc(F)cc1", "note": "[Example 150, N—[(S)-1-(4-fluoro-phenyl)-ethyl]-2-[3-(4-trifluoromethoxy-benzyl)-3H-imidazo[4,5-b]pyridine-2-sulfonyl]-acetamide]", "values": [{"measurement": "IC50", "setting": "[2]", "result": 2880, "unit": "nM"}]}
{"molecule": "C[C@H](NC(=O)CCc1nc2ccncc2n1Cc1ccc(OC(F)(F)F)cc1)c1ccc(F)cc1", "note": "[Example 124, N-[(S)-1-(4-Fluoro-phenyl)-ethyl]-3-[3-(4-trifluoromethoxy-benzyl)-3H-imidazo[4,5-c]pyridin-2-yl]-propionamide]", "values": [{"measurement": "IC50", "setting": "[2]", "result": 8, "unit": "nM"}]}
{"molecule": "C[C@@H]1CN(c2ccc([C@H](C)NC(=O)CCc3nc4cccnc4n3Cc3ccc(OC(F)(F)F)cc3)cc2)C[C@H](C)N1", "note": "[Example 171, N-{(S)-1-[4-((cis)-3,5-Dimethyl-piperazin-1-yl)-phenyl]-ethyl}-3-[3-(4-trifluoromethoxy-benzyl)-3H-imidazo[4,5-b]pyridin-2-yl]-propionamide]", "values": [{"measurement": "IC50", "setting": "[1]", "result": 2, "unit": "nM"}]}
{"molecule": "C[C@H](NC(=O)CCc1nc2cccnc2n1Cc1ccc(F)cc1)c1ccc(N2CCCC2)cc1", "note": "[Example 180, 3-[3-(4-Fluoro-benzyl)-3H-imidazo[4,5-b]pyridin-2-yl]-N-[(S)-1-(4-pyrrolidin-1-yl-phenyl)-ethyl]-propionamide]", "values": [{"measurement": "IC50", "setting": "[1]", "result": 6, "unit": "nM"}]}
{"molecule": "O=C(CCc1nc2cccnc2n1Cc1ccc(OC(F)(F)F)cc1)N[C@@H]1c2ccccc2C[C@H]1O", "note": "[Example 9, N-((1R,2R)-2-Hydroxy-indan-1-yl)-3-[3-(4-trifluoromethoxy-benzyl)-3H-imidazo[4,5-b]pyridin-2-yl]-propionamide]", "values": [{"measurement": "IC50", "setting": "[1]", "result": 1, "unit": "nM"}]}
{"molecule": "O=C(CCc1nc2cccnc2n1Cc1ccc(OC(F)(F)F)cc1)N[C@H](CO)Cc1ccccc1", "note": "[Example 204, N-((S)-1-Hydroxymethyl-2-phenyl-ethyl)-3-[3-(4-trifluoromethoxy-benzyl)-3H-imidazo[4,5-b]pyridin-2-yl]-propionamide]", "values": [{"measurement": "IC50", "setting": "[1]", "result": 89, "unit": "nM"}]}
{"molecule": "O=C(CCc1nc2cccnc2n1Cc1ccc(OC(F)(F)F)cc1)N[C@@H]1c2ccccc2C[C@@H]1O", "note": "[Example 8, N-((1R,2S)-2-Hydroxy-indan-1-yl)-3-[3-(4-trifluoromethoxy-benzyl)-3H-imidazo[4,5-b]pyridin-2-yl]-propionamide]", "values": [{"measurement": "IC50", "setting": "[1]", "result": 1, "unit": "nM"}]}
